Legend:
[1] = Dog pharmacokinetic studies: plasma ALLO after oral ALLO or prodrug, and after IV ALLO; format: in vivo, male beagle dogs; details: beagle dogs; for Vd: beagle, iv
Protocol: For the dog studies, male beagle dogs (body weights between 9.1-11.7 kg) were held in a large-animal research facility prior to the commencement of studies. The dogs were fasted for 12 h up to 30 min prior to drug administration. At 30 minutes prior to drug dosing, each animal received ˜20 g of high fat food (Teklad, TD.07096), then each animal was offered 100 g of beef-flavored canned food. Food was removed immediately prior to dosing. Following the 4 hour sample collection, food was returned (any remaining canned food and 200 g of regular diet). Water was available ad libitum throughout the study for all dogs.
For oral administration, test compounds were prepared in a suitable formulation such as a long-chain lipid based self-emulsifying drug delivery system (SEDDS) consisting of 30.5% w/w soybean oil, 30.5% w/w Maisine-CC, 31.6% w/w Cremophor EL and 7.4% w/w ethanol. Formulations were filled into hard gelatin capsules. Each animal received 2 size 000 capsules that in total contained ALLO (at 1.5 mg/kg dose) or ALLO prodrug (at 5 mg/kg dose, equivalent to approx. 1.5 mg/kg parent ALLO) in 2 grams of SEDDS formulation. Compound dissolved in the formulation was administrated to the fed dog by placing the capsules as far posterior to the pharynx as possible, closing the mouth and rubbing the throat to stimulate swallowing. Subsequently 10 mL of water was administered orally via a syringe.
For the IV group, parent ALLO (0.5 mg/kg dose) was administered as an intravenous bolus (formulation contained ALLO at concentration of 1.5 mg/mL) by way of a percutaneous catheter placed in a peripheral vein, followed by a 2 mL flush with normal saline.
Blood samples (approx. 1.5 mL each) were taken via venepuncture of the cephalic vein 5 min prior to administration up to 48 hours post-dosing. During the blood sample collection period the animals had free access to water but remained fasted for a further 4 hours following drug administration.
Plasma was separated by centrifugation and aliquots of each plasma sample transferred into eppendorf tubes and stored at −80° C. prior to analysis.
Doses are normalized to a 1.5 mg/kg equivalent ALLO dose and data are presented as mean±SD (n=4). AUC was calculated using the trapezoidal method in PKsolver—non-compartment model. Statistical significance is defined as α<0.05 when using One-way ANOVA followed by Tukey's test (paired comparison).

[2] = Rat pharmacokinetic studies: plasma allopregnanolone after oral prodrug or ALLO, and after IV ALLO; format: in vivo, male Sprague-Dawley rats
Protocol: In order to assess the oral bioavailability of test compounds, pharmacokinetic studies were conducted using the following procedure. The day before drug administration, male Sprague-Dawley rats (240-320 g) were anesthetized and the carotid artery was cannulated. The rats were then allowed to regain consciousness and fasted overnight prior to the commencement of experiments with free access to water. The next morning, formulations containing parent compounds or prodrugs were administered via oral gavage or via the jugular vein cannula, and blood samples were collected from the carotid artery cannula from −5 min up to 24 h post dosing. During the blood sample collection period the rats had free access to water but remained fasted for a further 8 h following drug administration. In these allopregnanolone (ALLO) related studies, the blood samples were centrifuged at 4500×g for 5 min to separate plasma. Plasma samples were stored at −20° C. prior to assay by HPLC-MS-MS. The whole blood or plasma samples were assayed for free drug (i.e. non-glyceride associated drug) and were not hydrolized prior to assay (as was the case with the lymph samples).
FIG. 3 illustrates dose-normalized ALLO plasma concentrations following oral gavage of ALLO related formulations to conscious, carotid artery-cannulated male SD rats. The ALLO oral formulation for each rat contained 2 mg of parent ALLO (i.e., non-prodrug allopregnanolone) suspended in 2 ml of suspending vehicle (0.50 sodium carboxymethyl cellulose, 0.4% Tween 80 and 0.9% NaCl in water). Prodrug formulations for each rat contained 2 mg of the ALLO prodrug dispersed in 40 mg oleic acid, 25 mg Tween 80 and 2 ml PBS. Doses were normalized to a 2 mg/kg equivalent dose of ALLO. Data are shown as mean±SD n≥3 or mean±range when n=2. […] Doses are normalized to a 2 mg/kg equivalent ALLO dose and data are presented as mean±SD when n≥3 or mean±range when n=2.
Also shown (bottom) is the calculated area under the curve (AUC) over 0-24 h for each of the test compounds as a fraction of the IV-administered allpregnanolone control.

[3] = Non-human primate pharmacokinetic studies: plasma ALLO after oral ALLO or prodrug, and after IV ALLO; format: in vivo, male cynomolgus monkeys; details: cynomolgus monkeys; for Vd: iv
Protocol: For the non-human primate studies, male cynomolgus monkeys were held in a large-animal research facility prior to the commencement of studies. The monkeys were fasted overnight up to 30 min prior to drug administration. Thirty minutes prior to drug administration, each monkey received 30 mL of Ensure Milkshake via oral gavage and was allowed access to a normal ration of primate chow. The primate chow was removed at the time of drug administration and was then returned 4 hours after drug administration. Water was available ad libitum throughout the study for all monkeys.
Test compounds were prepared in a long-chain lipid-based self-emulsifying drug delivery system (SEDDS) consisting of 30.5% w/w soybean oil, 30.5% w/w Maisine-CC, 31.6% w/w Cremophor EL, and 7.4% w/w ethanol. Parent ALLO (i.e., non-prodrug allopregnanolone) was prepared in a formulation of 20% aqueous hydroxypropyl-p-cyclodextrin. Formulations were filled into hard gelatin capsules. Test compounds were dosed at 5 mg/kg, and parent ALLO was dosed at 1.5 mg/kg. Drug was administered in a single capsule followed by 10 mL of water by oral gavage. For the IV group, parent ALLO (0.5 mg/kg dose) was administered as an intravenous bolus (formulation contained ALLO at a concentration of 1.5 mg/mL) by way of a percutaneous catheter placed in a peripheral vein followed by a 2 mL flush with normal saline prior to removal of the catheter.
After oral administration, blood samples (approx. 1 mL each) were taken via venipuncture of a peripheral vein 5 min prior to administration up to 48 hours post-dosing. Blood samples were transferred into tubes containing dipotassium EDTA anticoagulant, and the tubes were placed on crushed ice until processing. Within 30 minutes of collection, the blood samples were processed to isolate plasma by centrifuging at 2200×g for 10 minutes at 5° C.±3° C. The plasma samples were stored in polypropylene tubes at −80° C. prior to analysis.
Doses are normalized to a 1.5 mg/kg equivalent ALLO dose and data are presented as mean±SD (n=6). AUC was calculated using the trapezoidal method in PKsolver—non-compartment model. Statistical significance is defined as α<0.05 when using One-way ANOVA followed by Tukey's test (paired comparison).

## CC(=O)[C@H]1CC[C@H]2[C@@H]3CC[C@H]4C[C@H](O)CC[C@]4(C)[C@H]3CC[C@]12C [Allopregnanolone, 5α-pregnan-3α-ol-20-one]
[1]; IV ALLO (reference)
  Apparent BA: 100.0%
[1]; male, dog, plasma, 0.5 mg/kg, IV ALLO, read-out: VSS (volume of distribution during the steady state phase)
  Vd: 14 ± 1.7 L/kg
[1]; male, dog, plasma, 0.5 mg/kg, IV ALLO, read-out: VZ (volume of distribution during the elimination phase)
  Vd: 142 ± 29.5 L/kg
[1]; male, dog, plasma, 0.5 mg/kg, IV ALLO, read-out: Cl (clearance)
  clearance: 160 ± 21.7 mL/min/kg
[1]; male, dog, plasma, 0.5 mg/kg, IV bolus ALLO
  Tmax: 0 h
[1]; male, dog, plasma, 0.5 mg/kg, IV bolus ALLO, normalized to 1.5 mg/kg
  AUC(0-inf): 0.498 ± 0.0633 µM·h
[1]; male, dog, plasma, 0.5 mg/kg, IV bolus ALLO, normalized to 1.5 mg/kg, mean±SD (n=4), read-out: Cmax (extrapolated C0)
  Cmax: 3.5 ± 0.572 µM
[1]; male, dog, plasma, 0.5 mg/kg, IV bolus ALLO, read-out: T1/2 (elimination phase half-life) (converted)
  half-life: 10.3 ± 0.8 h
[2]; male, Sprague-Dawley, plasma, 2 mg/kg, rat, IV, equivalent dose of allopregnanolone, n=1, read-out: AUC after intravenous administration
  AUC: ~1.45 µM·h
[2]; plasma Allo after oral gavage to rats, doses normalized to 2 mg/kg equivalent ALLO, mean±SD (n≥3) or mean±range (n=2)
  Cmax: below LOQ)
[2]; rat, oral parent allopregnanolone
  plasma levels after oral administration: below the limit of quantification
[3]; IV ALLO (reference)
  Apparent BA: 100%
[3]; male, cynomolgus monkey, plasma, 0.5 mg/kg, IV ALLO, read-out: Cl (clearance)
  clearance: 42.2 ± 9 mL/min/kg
[3]; male, cynomolgus monkey, plasma, 0.5 mg/kg, IV bolus ALLO
  Tmax: 4.8 min
[3]; male, cynomolgus monkey, plasma, 0.5 mg/kg, IV bolus ALLO, normalized to 1.5 mg/kg
  AUC(0-inf): 1.93 ± 0.373 µM·h
[3]; male, cynomolgus monkey, plasma, 0.5 mg/kg, IV bolus ALLO, normalized to 1.5 mg/kg, mean±SD (n=6)
  Cmax: 4.45 ± 0.73 µM
[3]; male, cynomolgus monkey, plasma, 0.5 mg/kg, IV bolus ALLO, read-out: T1/2 (terminal phase half-life) (converted)
  half-life: 7.4 ± 1.2 h
[3]; male, cynomolgus monkey, plasma, 0.5 mg/kg, IV ALLO, read-out: VSS (volume of distribution during the steady state phase)
  Vd: 2.6 ± 0.9 L/kg
[3]; male, cynomolgus monkey, plasma, 0.5 mg/kg, IV ALLO, read-out: VZ (volume of distribution during the elimination phase)
  Vd: 26.9 ± 6.8 L/kg
